From patent publication US20150004110A1, “NOVEL ANTI-AGING AND DEPIGMENTING COSMETIC COMPOSITIONS” (DIVERCHIM, priority 2011, published 2015)

What was measured:
[1] = tested on: B16 melanocytes stimulated with NDP-MSH; experiment: Anti-melanogenesis activity: melanin synthesis in B16 melanocytes stimulated with NDP-MSH; format: cell-based; conditions: NDP-MSH stimulated B16, 72 h, Table 2
Experimental: The depigmenting effect was evaluated on a line of type B16 melanocytes stimulated with NDP-MSH, (natural hormone stimulating melanogenesis; Melanocyte Stimulating Hormone, [Nle, DPhe]-α-MSH). Melanin synthesis was evaluated.
The anti-melanogenesis activity of the compounds in solution in DMSO was evaluated by measuring melanin synthesis in a model of B16 melanocytes stimulated with a stable derivative of α-MSH (natural melanogenesis stimulating hormone): NDP-MSH.
(§1) The melanocytes were seeded in a 96-well plate and were cultured for 24 h (37° C., 5% CO2, DMEM 1 g/L glucose without phenol red supplemented with glucose at 3 g/L, L-glutamine at 2 mM, penicillin at 50 U/mL, streptomycin at 50 μg/mL, foetal calf serum (FCS) at 10%). After incubation, the culture medium was then replaced with culture medium supplemented or not supplemented (unstimulated control) with a stable derivative of α-MSH and containing or not containing (controls) the test compounds or the reference (kojic acid at 25, 100, 400, 800 μg/mL). Each experiment was carried out with n=3, apart from the controls carried out with n=6, then the cells were incubated for 72 h. Wells without cells received in parallel the same quantities of medium supplemented or not supplemented with NDP-MSH and containing or not containing the test compounds or the reference in order to quantify the background noise associated with the presence of the compounds.
After incubation for 72 hours, the total melanin (intra- and extracellular) was quantified by measuring the absorption at 405 nm of each sample (direct reading of the culture plates) against a standard range of melanin (melanin concentrations tested from 0.78 to 100 μg/mL). The background noise, measured in the wells without cells, was subtracted from the measured values so as only to take into account the effect connected with melanin production, without taking into account the possible interference connected with the presence of the compounds. The results were expressed as percentage of melanin relative to the control as well as percentage inhibition.
The operating conditions are the same as in Example 12.

[2] = tested on: B16 melanocytes; experiment: Cell viability, MTT reduction test; format: cell-based; conditions: B16, 72 h, Table 2
Experimental: as §1, with “compounds. At the end of the treatment, the cells were incubated in the presence of MTT (tetrazolium salt), the transformation of which to blue crystals of formazan is proportional to the activity of succinate dehydrogenase (mitochondrial enzyme). After dissociation of the cells, the formazan was dissolved in DMSO medium and the optical density (OD), representative of the number of living cells and of their metabolic reactivity, was measured with a microplate reader at 540 nm (VERSAmax, Molecular Devices). The operating conditions are the same as in Example 12.” for “compounds.”

[3] = Melanocyte, 30 μM, read-out: Standardized data Inhibition (%) (melanin)
[4] = Melanocyte, 100 μM, read-out: Standardized data Inhibition (%) (melanin)

| Structure (SMILES) | inhibition at 30 µM [1, 3] [%] | inhibition at 100 µM [1, 4] [%] | Viability (MTT) % stimulated control ([2]; 30 μM) [%] | Viability (MTT) % stimulated control ([2]; 100 μM) [%] | Standardized data Inhibition (%) (melanin) ([1]; 30 μM) | Standardized data Inhibition (%) (melanin) ([1]; 100 μM) | inhibition at 3 µM ([1]; Melanocyte, 3 μM, read-out: Standardized data Inhibition (%) (melanin)) | inhibition at 10 µM ([1]; Melanocyte, 10 μM, read-out: Standardized data Inhibition (%) (melanin)) | Viability (MTT) % stimulated control ([2]; 3 μM) [%] | Viability (MTT) % stimulated control ([2]; 10 μM) [%] |
| --- | --- | --- | --- | --- | --- | --- | --- | --- | --- | --- |
| Cc1ccc(OCCc2ccccc2O)cc1 [Compound 2] | 100 | 112 | 108 | 34 | – | – | – | – | – | – |
| Oc1ccccc1CCOc1ccc(Br)cc1 [Compound 3] | 110 | 112 | 96 | 0 | – | – | – | – | – | – |
| COc1ccc(OCCc2ccccc2O)cc1 [Compound 4] | – | – | 97 | 54 | 95 | 111 | – | – | – | – |
| Oc1ccccc1CCOc1ccccc1 [Compound 5] | – | – | 103 | 67 | 49 | 111 | – | – | – | – |
| Fc1ccc(OCCc2ccccc2Br)cc1 [Compound 8] | – | – | 94 | 93 | −27 | 50 | – | – | – | – |
| Fc1ccc(OCCc2ccccc2C(F)(F)F)cc1 [Compound 10] | -11 | 27 | 87 | 91 | – | – | – | – | – | – |
| Cc1cccc(CCOc2ccc(F)cc2)c1 [Compound 11] | -2 | 44 | 83 | 109 | – | – | – | – | – | – |
| COc1ccc(OCCc2ccccc2OC)cc1 [Compound 14] | -22 | 100 | 89 | 80 | – | – | – | – | – | – |
| COc1ccccc1CCOc1ccc(F)cc1 [Compound 16] | -33 | 52 | 87 | 83 | – | – | – | – | – | – |
| COc1ccccc1C1(COc2ccc(F)cc2)CC1 [Compound 18] | -21 | 105 | 80 | 75 | – | – | – | – | – | – |
| O=[N+]([O-])c1ccc(OCCc2ccccc2O)cc1 [Compound 19] | 82 | 111 | 91 | 0 | – | – | – | – | – | – |
| Oc1ccccc1CCOc1ccc(OCc2ccccc2)cc1 [Compound 20] | 115 | – | 59 | – | – | – | 83 | 108 | 106 | 84 |
| CC(=O)Nc1ccc(OCCc2ccccc2OC(C)=O)cc1 [Compound 22] | -3 | 61 | 97 | 86 | – | – | – | – | – | – |
| Oc1ccccc1C(O)COc1ccc(F)cc1 (stereo not drawn) [Compound 24] | -12 | 84 | 76 | 78 | – | – | – | – | – | – |
| Fc1ccc(CCOc2ccccc2OCc2ccccc2)cc1 [Compound 25] | 46 | – | 93 | – | – | – | – | – | – | – |
